Patent publication US7342027B2 (Yuhan Corporation, priority 2002, dated 2008)

How the values were obtained:
[1] = target: T1, Cathepsin H (Calbiochem, 219388) (Homo sapiens, UniProt P09668); test: Selectivity study: cathepsin H (L-Arg-pNA); assay type: biochemical; details: 1 hour at 40° C., read-out: Cathepsins (IC50, nM) H
T1 construct: purchased Calbiochem 219388
T1 sequence (P09668 98-335): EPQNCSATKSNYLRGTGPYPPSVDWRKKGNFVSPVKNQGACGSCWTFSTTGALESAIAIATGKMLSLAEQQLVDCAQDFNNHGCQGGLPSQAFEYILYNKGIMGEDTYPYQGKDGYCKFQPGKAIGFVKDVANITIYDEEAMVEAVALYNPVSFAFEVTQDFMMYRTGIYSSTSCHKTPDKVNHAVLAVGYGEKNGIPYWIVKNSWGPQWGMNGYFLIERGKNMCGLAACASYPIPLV
Protocol: (§1) Test 2: Selectivity Study
(§2) Selectivity study for the compounds of the present invention was performed using cathepsin C (Sigma, C8511), cathepsin G (Calbiochem, 219373), cathepsin H (Calbiochem, 219388), cathepsin L (Calbiochem, 219402), and cathepsin S (Eur. J. Biochem. 236, 558 (1996) as enzyme sources.
Cathepsin H (Calbiochem, 219388) was dissolved in 20 mM NaOAc, 1 mM EDTA-2Na and 100 mM NaCl buffer (pH 4.6). All inhibitors were prepared dimethyl sulfoxide (DMSO). In vitro assays for cathepsin H were conducted with L-Arg-pNA (BACHEM, 1-1160) as a substrate. Samples were pre-incubated for 5 minutes at 40° C. Reaction was initiated by the addition of enzyme to samples, which were then incubated for 1 hour at 40° C. The absorbance of p-nitroaniline released was monitored at 405 nm using spectrophotometer.
(§3) The concentrations of the test compounds, which inhibit 50% of cathepsin s C, G, H, L and S activity, are represented as IC50 in Table 2.

[2] = target: T2, Cathepsin C (Sigma, C8511) (Bos taurus, UniProt Q3ZCJ8); test: Selectivity study: cathepsin C (Gly-Phe-pNA); assay type: biochemical; details: 1 hour at 37° C., read-out: Cathepsins (IC50, nM) C
T2 construct: purchased Sigma C8511
Protocol: as §1, §2
(§4) Cathepsin C (Sigma, C8511) was dissolved in D.W. buffer (pH 5.5). All inhibitors were prepared in dimethyl sulfoxide (DMSO). In vitro assays for cathepsin C were conducted with Gly-Phe-pNA (Sigma, G-0142) as a substrate. Samples were pre-incubated for 10 minutes at 37° C. Reaction was initiated by the addition of enzyme to samples, which were then incubated for 1 hour at 37° C. The absorbance of p-nitroaniline released was monitored at 405 nm using spectrophotometer.
as §3

[3] = target: T3, Cathepsin G (Calbiochem, 219373) (Homo sapiens, UniProt P08311); test: Selectivity study: cathepsin G (Suc-Ala-Ala-Pro-Phe-pNA); assay type: biochemical; details: 1 hour at 25° C., read-out: Cathepsins (IC50, nM) G
T3 construct: purchased Calbiochem 219373
T3 sequence (P08311 21-244): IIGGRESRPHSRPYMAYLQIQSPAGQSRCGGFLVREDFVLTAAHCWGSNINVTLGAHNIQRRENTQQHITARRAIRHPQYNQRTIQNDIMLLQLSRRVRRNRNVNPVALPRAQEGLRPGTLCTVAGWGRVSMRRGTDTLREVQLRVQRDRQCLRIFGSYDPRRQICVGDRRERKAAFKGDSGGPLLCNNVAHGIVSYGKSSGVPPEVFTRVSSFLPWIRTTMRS
Protocol: as §1, §2
as §4, with “Cathepsin G (Calbiochem, 219373)” for “Cathepsin C (Sigma, C8511)”, “in 50 mM NaOAc and 150 mM NaCl” for “in D.W.”, “cathepsin G” for “cathepsin C”, “with Suc-Ala-Ala-Pro-Phe-pNA (Calbiochem, 219407)” for “with Gly-Phe-pNA (Sigma, G-0142)”, “at 25°” for “at 37°”
as §3

[4] = target: Recombinant human Cathepsin S (Homo sapiens, UniProt P25774); test: Selectivity study: cathepsin S (Z-Val-Val-AMC); assay type: biochemical; details: 30 minutes at 37° C., read-out: Cathepsins (IC50, nM) S
Protocol: as §1, §2
Recombinant human Cathepsin S (Eur. J. Biochem. 236, 558 (1996) was dissolved in 0.1 M NaOAc 1 mM EDTA-4Na buffer (pH 5.5). All inhibitors were prepared in dimethyl sulfoxide (DMSO). In vitro assays for cathepsin S were conducted with Z-Val-Val-AMC (BACHEM, 1-1160) as a substrate. Samples were pre-incubated for 10 minutes at 4° C. Reaction was initiated by the addition of enzyme to samples, which were then incubated for 30 minutes at 37° C. The florescence of AMC (7-amino-4-methylcoumarin) released was monitored at 465 nm (excitation wavelength 360 nm), using fluorescence spectrophotometer.
as §3

[5] = target: T4, Recombinant human cathepsin K (Homo sapiens, UniProt P43235); test: Inhibition of cathepsin K activity (Z-Phe-Arg-AMC fluorescence assay); assay type: biochemical; details: 25 uM Z-Phe-Arg-AMC, pH 5.5, 1 hour at 37° C.
T4 construct: made in house
T4 sequence (P43235 115-329): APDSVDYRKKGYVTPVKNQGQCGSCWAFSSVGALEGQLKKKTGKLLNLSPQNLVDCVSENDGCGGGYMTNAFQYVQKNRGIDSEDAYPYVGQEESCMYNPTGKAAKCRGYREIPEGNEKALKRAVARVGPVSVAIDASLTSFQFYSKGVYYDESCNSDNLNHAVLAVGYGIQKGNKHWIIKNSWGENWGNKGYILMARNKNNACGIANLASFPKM
Procedure, shortened: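 Z-Phe-Arg-AMC at 25 uM in 100 mM Na acetate pH 5.5 with 20 mM cysteine, 5 mM EDTA and 2% final DMSO; reaction started by adding enzyme, then 1 hour at 37° C. Fluorescence read at ex 360/em 460 nm; IC50 is the concentration giving 50% inhibition.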

[6] = target: T5, Cathepsin L (Calbiochem, 219402) (Homo sapiens, UniProt P07711); test: Selectivity study: cathepsin L (Z-Phe-Arg-AMC); assay type: biochemical; details: 1 hour at 25° C., read-out: Cathepsins (IC50, nM) L
T5 construct: purchased Calbiochem 219402
Protocol: as §1, §2
Cathepsin L (Calbiochem, 219402) was dissolved in 50 mM NaOAc buffer (pH 5.0). All inhibitors were prepared in dimethyl sulfoxide (DMSO). […] Samples were pre-incubated for 5 minutes at 25° C. Reaction was initiated by the addition of enzyme to samples, which were then incubated for 1 hour at 25° C. The fluorescence of AMC (7-amino-4-methylcoumarin) was monitored at 460 nm (excitation wavelength 360 nm), using fluorescence spectrophotometer.
as §3

Chain of Recombinant human Cathepsin S (P25774 115-331): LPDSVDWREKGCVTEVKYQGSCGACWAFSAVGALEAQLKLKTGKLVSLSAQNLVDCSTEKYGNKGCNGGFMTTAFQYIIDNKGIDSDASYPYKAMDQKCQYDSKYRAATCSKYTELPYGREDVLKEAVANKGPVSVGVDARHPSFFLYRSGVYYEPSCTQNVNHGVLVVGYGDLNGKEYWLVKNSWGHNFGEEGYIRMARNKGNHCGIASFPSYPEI
T5 sequence (P07711 114-333): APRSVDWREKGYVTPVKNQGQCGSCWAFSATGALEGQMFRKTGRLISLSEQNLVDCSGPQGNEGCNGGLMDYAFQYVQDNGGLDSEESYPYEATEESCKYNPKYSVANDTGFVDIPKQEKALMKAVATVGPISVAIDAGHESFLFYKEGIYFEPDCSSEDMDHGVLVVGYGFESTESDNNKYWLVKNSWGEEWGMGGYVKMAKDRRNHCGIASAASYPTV
T2 sequence (Q3ZCJ8 25-463): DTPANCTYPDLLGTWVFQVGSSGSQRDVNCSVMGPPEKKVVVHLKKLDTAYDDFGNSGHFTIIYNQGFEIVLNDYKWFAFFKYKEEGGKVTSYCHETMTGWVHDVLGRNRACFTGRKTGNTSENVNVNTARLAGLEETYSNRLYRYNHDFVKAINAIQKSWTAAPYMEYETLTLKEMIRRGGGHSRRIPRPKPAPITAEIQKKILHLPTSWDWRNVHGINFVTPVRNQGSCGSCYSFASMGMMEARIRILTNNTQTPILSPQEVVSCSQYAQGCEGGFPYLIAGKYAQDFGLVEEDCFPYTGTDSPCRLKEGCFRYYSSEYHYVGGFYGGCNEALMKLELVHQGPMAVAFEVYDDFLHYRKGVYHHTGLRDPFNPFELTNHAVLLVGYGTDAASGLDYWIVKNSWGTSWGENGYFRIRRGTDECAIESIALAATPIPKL

CS(=O)(=O)c1ccccc1N1CCC(NC(=O)C2(NC(=O)c3cc4ccccc4o3)CCCCC2)C(=O)C1 (stereo not shown) [Example 1, 4-[N-[1-[N-(benzofuran-2-ylcarbonyl)amino]cyclohexanecarbonyl]amino]-1-(2-methylsulfonylphenyl)piperidin-3-one]
melting point: 219 to 220 °C
IC50 [1]: > 240 nM
IC50 [2]: 382 nM
IC50 [3]: > 240 nM
IC50 [4]: 133 nM
IC50 [5]: 0.00817 µM
IC50 [6]: 138 nM
